For this assay, the system named is B6C3F1 mice, B16 melanoma ip, median survival T/C. Briefly: NCI In Vivo Anticancer Drug Screen. Data for tumor model B16 Melanoma (intraperitoneal) in B6C3F1 mice. The conditions noted are these: endpoint: median survival time, schedule: Q01DX009 (ip), higher = longer survival. A digest of the protocol: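 Antitumor effect was judged in mice with transplanted tumors by dividing the treated group's survival measure by that of vehicle controls.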

The mark [1] stands for this setting: dose: 100.0 mg/kg/injection, vehicle: Klucel (hydroxypropylcellulose) (HPC).
The mark [2] stands for this setting: dose: 200.0 mg/kg/injection, vehicle: Klucel (hydroxypropylcellulose) (HPC).
[3] abbreviates: dose: 400.0 mg/kg/injection, vehicle: Klucel (hydroxypropylcellulose) (HPC).
Where [4] appears, read: dose: 100.0 mg/kg/injection, vehicle: saline with Tween-80.
The mark [5] stands for this setting: dose: 200.0 mg/kg/injection, vehicle: saline with Tween-80.
[6] abbreviates: dose: 12.5 mg/kg/injection, vehicle: saline with Tween-80.
Where [7] appears, read: dose: 25.0 mg/kg/injection, vehicle: saline with Tween-80.
[8] abbreviates: dose: 50.0 mg/kg/injection, vehicle: saline with Tween-80.
The mark [9] stands for this setting: dose: 100.0 mg/kg/injection, vehicle: saline.
The mark [10] stands for this setting: dose: 200.0 mg/kg/injection, vehicle: saline.
Where [11] appears, read: dose: 400.0 mg/kg/injection, vehicle: saline.
Setting [12] is: dose: 25.0 mg/kg/injection, vehicle: Klucel (hydroxypropylcellulose) (HPC).
The mark [13] stands for this setting: dose: 1.5 mg/kg/injection, vehicle: saline with Tween-80.

Several values for one entry are separate records, joined by “and”; a condition that tells them apart may be missing. Equal entries are not always repeated. Toxic doses and inconclusive results are not listed. Where a SMILES comes first, the peptide text is derived from it. [ ]: non-standard residue; d: D form. The star is where a group is joined. Cbz = O=C(OCc1ccccc1)*; Nva = CCC[CH](N)C(=O)O

On to `CCCC(NC(=O)OCc1ccccc1)C(=O)NC(CC(C)C)C(=O)O` (stereo unspecified) (Cbz-[Nva]-Leu-OH; configuration not given here), for which the T/C is, setting by setting: under setting [1], 104 % of control; under setting [2], 104 % of control; under setting [3], 96 % of control.

For `N#CCCN(C(=S)Nc1cccc(C(F)(F)F)c1)C1CCCCC1`, the T/C runs as follows: (dose: 12.5 mg/kg/injection, vehicle: suspension in saline) 102 % of control; (dose: 25.0 mg/kg/injection, vehicle: suspension in saline) 100 % of control; (dose: 50.0 mg/kg/injection, vehicle: suspension in saline) 101 % of control; under setting [4], 113 % of control; (dose: 100.0 mg/kg/injection, vehicle: suspension in saline) 107 % of control; under setting [5], 94 % of control. For the same compound, the T/C by setting is: (dose: 200.0 mg/kg/injection, vehicle: suspension in saline) 113 % of control; (dose: 400.0 mg/kg/injection, vehicle: saline with Tween-80) 89 % of control; (dose: 400.0 mg/kg/injection, vehicle: suspension in saline) 103 % of control.

As for `O=[N+]([O-])c1ccc(Sc2ccncn2)c([N+](=O)[O-])c1`, the T/C runs as follows: under setting [6], 92 % of control; under setting [7], 105 % of control; under setting [8], 92 % of control; under setting [4], 101 % of control.

With `CC(C)C(N)C(=O)Nc1nncs1` (stereo unspecified), the T/C (dose: 12.5 mg/kg/injection, vehicle: saline) is 102 % of control; the T/C (dose: 25.0 mg/kg/injection, vehicle: saline) was 104 % of control; the T/C (dose: 50.0 mg/kg/injection, vehicle: saline) is 98 % of control; the T/C under setting [9] was 113 % of control; the T/C under setting [10] is 114 % of control; the T/C under setting [11] was 117 % of control.

With `CC(=O)OC1C(C)OC(OC(=O)C2CCC3C(C2)OC2(CC(OC(=O)/C=C/c4ccccc4)C(C)CO2)C32CO2)C(OC2OC(C)C(O)C(OC(C)=O)C2O)C1O` (stereo unspecified), the T/C is, setting by setting: (dose: 0.75 mg/kg/injection, vehicle: saline + alcohol) 100 % of control; (dose: 1.5 mg/kg/injection, vehicle: saline + alcohol) 99 % of control; (dose: 3.0 mg/kg/injection, vehicle: saline + alcohol) 99 % of control; (dose: 4.0 mg/kg/injection, vehicle: saline + Tween-80 + alcohol) 122 % of control; (dose: 16.0 mg/kg/injection, vehicle: saline + Tween-80 + alcohol) 161 % of control; (dose: 32.0 mg/kg/injection, vehicle: saline + Tween-80 + alcohol) 174 % of control. Besides, the T/C (dose: 64.0 mg/kg/injection, vehicle: saline + Tween-80 + alcohol) was 201 % of control.

Turning to `CCCC(NC(=O)OCc1ccccc1)C(=O)NC(Cc1c[nH]c2ccccc12)C(=O)O` (stereo unspecified), the T/C was 107 % of control under setting [1], 99 % of control under setting [2] and 100 % of control under setting [3].

`COC(=O)C(Cc1ccc(O)cc1)NC(=O)C(Cc1ccccc1)NC(C)=O` (stereo not drawn) (Ac-Phe-Tyr-OMe; configuration not given here): the T/C under setting [12] is 92 % of control; the T/C (dose: 50.0 mg/kg/injection, vehicle: Klucel (hydroxypropylcellulose) (HPC)) was 92 % of control; the T/C under setting [1] is 92 % of control; the T/C under setting [2] was 86 % of control.

On to `CN=C(N)N/N=C(\C)c1ccc2c(c1)Cc1cc(/C(C)=N/NC(N)=NC)ccc1-2`, for which the T/C was 97 % of control (dose: 0.75 mg/kg/injection, vehicle: saline with Tween-80) and 101 % of control under setting [13].

On to `O=C1CN(CN2CCOCC2)C(=O)CN1CN1CCOCC1`, for which the T/C under setting [6] is 88 % of control; the T/C under setting [7] is 94 % of control; the T/C under setting [8] is 93 % of control; the T/C under setting [4] was 102 % of control; the T/C under setting [5] is 100 % of control.

With `CC(C)(C#CC(C)(C)OC(=O)Nc1ccccc1)OC(=O)Nc1ccccc1`, the T/C was 106 % of control under setting [9], 100 % of control under setting [10] and 98 % of control under setting [11].

`CCCCC(NC(=O)CNC(=O)CNC(=O)OCc1ccccc1)C(=O)O` (stereo unspecified) (HELM PEPTIDE1{[O=C(OCc1ccccc1)[*:2]].G.G.[CCCCC(N[*:1])C(=O)O]}$$$$V2.0): the T/C was 102 % of control under setting [1], 105 % of control under setting [2] and 96 % of control under setting [3].

Regarding `O=C1NC(=O)NC(C(=O)O)N1`, the T/C by setting is: (dose: 0.75 mg/kg/injection, vehicle: Klucel (hydroxypropylcellulose) (HPC)) 108 % of control; (dose: 1.5 mg/kg/injection, vehicle: Klucel (hydroxypropylcellulose) (HPC)) 106 % of control; (dose: 3.0 mg/kg/injection, vehicle: Klucel (hydroxypropylcellulose) (HPC)) 116 % of control; (dose: 6.0 mg/kg/injection, vehicle: Klucel (hydroxypropylcellulose) (HPC)) 106 % of control; (dose: 12.0 mg/kg/injection, vehicle: Klucel (hydroxypropylcellulose) (HPC)) 107 % of control.

Consider `O=C(c1cccnc1)c1cc(-c2ccccn2)c(=O)n2ccccc12`, for which the T/C runs as follows: under setting [7], 96 % of control; under setting [8], 98 % of control; under setting [4], 89 % of control.

As to `CCCCC(NC(=O)C(C)NC(=O)OCc1ccccc1)C(=O)O` (stereo unspecified), the T/C under setting [1] is 101 % of control, the T/C under setting [2] was 99 % of control and the T/C under setting [3] was 94 % of control.

Regarding `COC12C(COC(=O)NCCO)C3=C(C(=O)C(C)=C(N)C3=O)N1CC1NC12` (stereo unspecified), the T/C runs as follows: (dose: 3.13 mg/kg/injection, vehicle: Klucel (hydroxypropylcellulose) (HPC)) 110 % of control; (dose: 12.5 mg/kg/injection, vehicle: Klucel (hydroxypropylcellulose) (HPC)) 205 % of control; under setting [12], 121 % of control.

Consider `COc1cccc2c1C(=O)c1c(O)c3c(c(O)c1C2=O)C[C@@](O)(C(=O)COC(=O)c1cccnc1)C[C@@H]3OC1CC(N)C(O)C(C)O1` (stereo partly specified), for which the T/C runs as follows: (dose: 0.25 mg/kg/injection, vehicle: saline) 170 % of control; (dose: 0.5 mg/kg/injection, vehicle: saline) 198 % of control; (dose: 1.0 mg/kg/injection, vehicle: saline) 220 % of control; (dose: 2.0 mg/kg/injection, vehicle: saline) 255 % of control.

With `CC[C@@]1(O)C(=O)OCc2c1cc1n(c2=O)Cc2cc3ccccc3nc2-1`, the T/C was 108 % of control (dose: 0.1 mg/kg/injection, vehicle: other); 174 % of control under setting [13]; 189 % of control (dose: 3.0 mg/kg/injection, vehicle: saline with Tween-80).

Regarding `CC1/C=C/C=C/CC/C=C/C=C/C=C/C=C/C(OC2OC(C)C(O)C(N)C2O)CC2OC(CC(O)C(O)CCC(O)CC(O)CC(O)CC(=O)OC(C)C(C)C1O)CC(O)C2C(=O)O` (stereo unspecified), the T/C was 107 % of control (dose: 6.25 mg/kg/injection, vehicle: saline with Tween-80); 96 % of control under setting [6]; 102 % of control under setting [7]; 98 % of control under setting [8]; 90 % of control under setting [4].

Regarding `CCN(CC)CCn1[nH]c2c3ccc(=O)cc3sc3c(NCCN)ccc1c32`, the T/C reads like this: (dose: 1.56 mg/kg/injection, vehicle: water) 161 % of control; (dose: 1.7 mg/kg/injection, vehicle: water) 189 % of control; (dose: 2.7 mg/kg/injection, vehicle: water) 225 % of control; (dose: 4.5 mg/kg/injection, vehicle: water) 270 % of control; (dose: 7.5 mg/kg/injection, vehicle: water) 281 % of control; (dose: 12.5 mg/kg/injection, vehicle: water) 161 % of control and 264 % of control.

These data come from PubChem BioAssay AID200 (DTP/NCI, 2004).
